Test results: patent EP0084757A1, “Trisubstituted diaza derivatives” (CIBA-GEIGY AG, priority 1982, dated 1983)
≈ marks a conversion by molar mass, not a printed value.

Test system: mit Crotonöl induzierten Rattenohroedems
Assay: Inhibition of croton oil-induced rat ear oedema (method of Tonelli and Thibault)
Assay type: in vivo, Normalratte
Conditions: inhibition of croton oil-induced ear oedema in the normal rat; local application
Method: Diese Eigenschaft lässt sich beispielsweise nach der von G. Tonelli, L. Thibault, Endocrinology 77, 625 (1965) entwickelten Methode durch Hemmung des mit Crotonöl induzierten Rattenohroedems bei der Normalratte im Dosisbereich von etwa 1 bis etwa 100 mg/ml nachweisen.

`COC(Cc1nc(-c2ccccc2)c(-c2cccnc2)[nH]1)OC` [2-[4(5)-Phenyl-5(4)-(3-pyridyl)-imidazol-2-yl]-acetaldehyd-dimethylacetal] was tested, and the ED50-Wert was 18 mg/mL (≈ 58.2 mM).
